Ratio and Activity data for 27 compounds are collected here from ChEMBL document CHEMBL3745655, “Novel carbocyclic nucleoside analogs suppress glomerular mesangial cells proliferation and matrix protein accumulation through ROS-dependent mechanism in the diabetic milieu. II. Acylhydrazone-functionalized pyrimidines” (Bioorg Med Chem Lett, 2016).

Common to all, as to type: functional
Assay [1] in a line: Antidiabetic activity in 24 hrs serum-deprived rat glomerular mesangial cells assessed as reduction of high glucose-induced fibronectin and beta-actin expression ratio at 0.5 uM after 48 hrs by Western blot analysis relative to control.
Assay [2] can be described thus: Antidiabetic activity in 24 hrs serum-deprived rat glomerular mesangial cells assessed as reduction of high glucose-induced fibronectin and beta-actin expression ratio at 1 uM after 48 hrs by Western blot analysis relative to control.
Assay [3] can be described thus: Antidiabetic activity in 24 hrs serum-deprived rat glomerular mesangial cells assessed as reduction of high glucose-induced fibronectin and beta-actin expression ratio at 5 uM after 48 hrs by Western blot analysis relative to control.
Assay [4] in a line: Antidiabetic activity in 24 hrs serum-deprived rat glomerular mesangial cells assessed as reduction of high glucose-induced fibronectin and beta-actin expression ratio at 0.25 uM after 48 hrs by Western blot analysis relative to control. On the technique in general: In western blotting, separated proteins are transferred to a membrane and probed.
Assay [5] is filed under the species Rattus norvegicus. Briefly: Protection against high glucose-induced increase of cell proliferation in rat glomerular mesangial cells after 48 hrs by MTT assay. (In general: Tetrazolium dyes change colour on reduction, which living cells bring about.)
A short description of assay [6]: Antidiabetic activity in 24 hrs serum-deprived rat glomerular mesangial cells assessed as reduction of high glucose-induced ROS production at 1 uM after 48 hrs by DHE staining.
Assay [7] can be described thus: Antidiabetic activity in 24 hrs serum-deprived rat glomerular mesangial cells assessed as reduction of high glucose-induced ROS production at 5 uM after 48 hrs by DHE staining.

Activity calls are given as the source filed them. The calls are words filed in the database; no cut-off is given here.

On to `CCOC(=O)[C@H]1C/C(=N\NC(=O)CCn2cc(C)c(O)nc2=O)C[C@H]1C(=O)OCC` (racemic), for which the Ratio is 91.9 in assay [1], 97.9 in assay [2] and 81.1 in assay [3].
In the case of `CCOC(=O)[C@@H]1CC(=O)C[C@H]1C(=O)OCC` (racemic), the Ratio worked out at 90.2 in assay [1], 86.3 in assay [2], 79.7 in assay [3] and 82.4 in assay [4].
Regarding `CCOC(=O)C1CCC/C1=N\NC(=O)CCn1ccc(O)nc1=O` (racemic), the Ratio in assay [1] stood at 127; in assay [2] it was 126; in assay [3], 106.
For `Cc1cn(CCC(=O)NN=C2C[C@@H](C(=O)O)[C@H](C(=O)O)C2)c(=O)nc1O` (racemic), the Ratio came out at 78.4 in assay [1], 64.6 in assay [2] and 63.1 in assay [3]. The outcome in assay [5] and in assay [6] was Active.
`CCOC(=O)[C@H]1C/C(=N\NC(=O)CCn2ccc(O)nc2=O)C[C@H]1C(=O)OCC` (racemic): the figures for the Ratio in assay [1], in assay [2] and in assay [3] were 97.5, 93.7 and 76.5, respectively. Moreover, the result in assay [5] was inactive.
In the case of `CCOC(=O)[C@@H]1CC(=NNC(=O)CCn2ccc(N)nc2=O)C[C@H]1C(=O)OCC` (racemic), the Ratio in assay [1] was 98.2; in assay [2], 96.1; in assay [3] it was 80.6. In addition, the outcome in assay [5] was inactive.
Turning to `Nc1ccn(CCC(=O)N/N=C2\C[C@H](C(=O)O)[C@H](C(=O)O)C2)c(=O)n1` (racemic), the Ratio turned out to be 143 in assay [1], 142 in assay [2], 113 in assay [3] and 136 in assay [4].
For `O=C1CCCC1`, the Ratio in assay [1] stood at 101; in assay [2], 114; in assay [3], 129; in assay [4] it was 82.8.
On to `O=C1C[C@@H](C(=O)O)[C@H](C(=O)O)C1` (racemic), for which the Ratio came out at 143 in assay [1], 149 in assay [2], 124 in assay [3] and 135 in assay [4].
For `O=C1C[C@H](C(=O)O)[C@H](C(=O)O)C1` the same measures were 149, 145, 121 and 129.
Regarding `CCOC(=O)C1CCCC1=O` (racemic), the Ratio in assay [1] worked out at 110; in assay [2], 88.3; in assay [3] it was 137; in assay [4], 109.
As to `CCOC(=O)C1CCC/C1=N\NC(=O)CCn1cc(C)c(O)nc1=O` (racemic), the Ratio in assay [1] is 88.8; in assay [2] it was 96.5; in assay [3], 91.6. In addition, in assay [5], the outcome was inactive.
As for `O=C(CCn1ccc(O)nc1=O)N/N=C1\C[C@H](C(=O)O)[C@H](C(=O)O)C1` (racemic), the Ratio in assay [1] was 80; in assay [2], 96.7; in assay [3], 117; in assay [4], 75.1.
As to `NNC(=O)CCn1ccc(N)nc1=O`, the Ratio amounted to 76.5 in assay [1], 81.6 in assay [2] and 80.8 in assay [3].
Turning to `Cc1cn(CCC(=O)N/N=C2\C[C@H](C(=O)O)[C@H](C(=O)O)C2)c(=O)nc1O` (racemic), the Ratio was determined as 80.1 in assay [1], 72 in assay [2] and 70.7 in assay [3]. Further, the outcome in assay [5] and in assay [6] was Active.
For the compound `Cc1cn(CCC(=O)NN=C2CCCC2)c(=O)nc1O`, the Ratio in assay [1] amounted to 118; in assay [2], 126; in assay [3], 127.
Take `Nc1ccn(CCC(=O)NN=C2C[C@@H](C(=O)O)[C@H](C(=O)O)C2)c(=O)n1` (racemic): the Ratio in assay [1] came out at 126; in assay [2], 128; in assay [3], 107; in assay [4], 123.
In the case of `NNC(=O)CCn1ccc(O)nc1=O`, the Ratio stood at 101 in assay [1], 80.5 in assay [2] and 85.4 in assay [3]. The result in assay [5] and in assay [7] was Active.
On to `CCOC(=O)[C@H]1C/C(=N\NC(=O)CCn2ccc(N)nc2=O)C[C@H]1C(=O)OCC` (racemic), for which the values for the Ratio in assay [1], in assay [2] and in assay [3] were 95.1, 91 and 125, respectively.
For `O=C(CCn1ccc(O)nc1=O)NN=C1C[C@@H](C(=O)O)[C@H](C(=O)O)C1` (racemic), the Ratio in assay [1] was 116; in assay [2], 115; in assay [3] it was 96.9; in assay [4] it was 132.
Take `CCOC(=O)[C@@H]1CC(=NNC(=O)CCn2ccc(O)nc2=O)C[C@H]1C(=O)OCC` (racemic): the Ratio in assay [1] came to 145; in assay [2] it was 132; in assay [3], 94. Besides, the outcome in assay [5] and in assay [6] was Active.
For `O=C(CCn1ccc(O)nc1=O)NN=C1CCCC1`, the Ratio in assay [1] worked out at 100; in assay [2], 84.8; in assay [3], 64.3. Besides, the result in assay [5] and in assay [6] was Active.
As to `CCOC(=O)[C@@H]1CC(=NNC(=O)CCn2cc(C)c(O)nc2=O)C[C@H]1C(=O)OCC` (racemic), the Ratio in assay [1] came out at 94.2; in assay [2], 90.8; in assay [3], 87.6.
In the same order, the values of `CCOC(=O)C1CCC/C1=N\NC(=O)CCn1ccc(N)nc1=O` (racemic) are 111, 119 and 102.
In the case of `CCOC(=O)[C@H]1CC(=O)C[C@H]1C(=O)OCC`, the Ratio in assay [1] was determined as 79.8; in assay [2], 88.9; in assay [3], 84.2; in assay [4] it was 81.8.
With `Nc1ccn(CCC(=O)NN=C2CCCC2)c(=O)n1`, the figures for the Ratio in assay [1], in assay [2] and in assay [3] were 218, 213 and 275, respectively.
For `Cc1cn(CCC(=O)NN)c(=O)nc1O` the same measures were 89.2, 94 and 102.
